Data taken from US10874646B2, “Epothilone analogs, methods of synthesis, methods of treatment, and drug conjugates thereof” (WILLIAM MARSH RICE UNIVERSITY, priority 2015, dated 2020).
Like-named read-outs stand apart in the source and are kept apart here.

How the values were obtained:
tubulin = assay: Induction/enhancement of tubulin assembly (Lin, et al., 1996); format: biochemical; details: 10 μM tubulin, 0.4M monosodium glutamate, 30 min at room temperature
MCF-7 = assay: Cytotoxicity, standard NCI assay with sulforhodamine B, 96 h; details: Homo sapiens, MCF7, 96 h; for IC50: read-out: Cytotoxicity (nM, ± SD) MCF-7
OVCAR-8 = assay: as above; details: Homo sapiens, OVCAR-8, 96 h; for IC50: read-out: Cytotoxicity (nM, ± SD) OVCAR-8
NCI/ADR-RES = assay: as above; format: cell-based, human; details: Homo sapiens, NCI/ADR-RES, 96 h, read-out: Cytotoxicity (nM, ± SD) NCI/ADR-RES
MDA-MB-435 = assay: as above; format: cell-based, human; details: Homo sapiens, MDA-MB-435, 96 h, read-out: Cytotoxicity (nM, ± SD) MDA-MB-435
SNB-75 = assay: as above; format: cell-based, human; details: Homo sapiens, SNB-75, 96 h, read-out: Cytotoxicity (nM, ± SD) SNB-75
[1] = Table 3, read-out: Enhancement of tubulin assembly (EC50)

| SMILES | EC50 (tubulin; Table 2, read-out: induction of tubulin assembly (EC50, μM ± SD)) [µM] | GI50 (MCF-7; read-out: cytotoxicity (GI50, nM ± SD) MCF-7) [nM] | GI50 (OVCAR-8; read-out: cytotoxicity (GI50, nM ± SD) OVCAR-8) [nM] | EC50 (tubulin; [1]) [µM] | IC50 (MCF-7) [nM] | IC50 (OVCAR-8) [nM] | IC50 (NCI/ADR-RES) [nM] | IC50 (MDA-MB-435) [nM] | IC50 (SNB-75) [nM] |
| --- | --- | --- | --- | --- | --- | --- | --- | --- | --- |
| C/C(=C\c1ccn(-c2ccc(N)cc2C(F)(F)F)n1)[C@@H]1C[C@@H]2O[C@]2(C)CCC[C@H](C)[C@H](O)[C@@H](C)C(=O)C(C)(C)[C@@H](O)CC(=O)O1 [Compound 13] | > 40 | 9 ± 1 | 35 ± 5 |  |  |  |  |  |  |
| C/C(=C\c1csc(C)n1)[C@@H]1C[C@@H]2N[C@]2(C)CCC[C@H](C)[C@H](O)[C@@H](C)C(=O)C(C)(C)[C@@H](O)CC(=O)O1 [Compound 70] |  |  |  | 19 | 2 | 1.5 ± 0.7 | 35 ± 7 |  |  |
| C/C(=C\c1csc(C)n1)[C@@H]1C[C@@H]2N(CCO)[C@]2(C)CCC[C@H](C)[C@H](O)[C@@H](C)C(=O)C(C)(C)[C@@H](O)CC(=O)O1 (some centres unmarked) [Compound 71] |  |  |  | 18.2 | 3 ± 1 | 4.5 ± 0.7 | 55 ± 20 |  |  |
| C/C(=C\c1ccccn1)[C@@H]1C[C@@H]2N(CCO)[C@]2(C)CCC[C@H](C)[C@H](O)[C@@H](C)C(=O)C(C)(C)[C@@H](O)CC(=O)O1 (some centres unmarked) [Compound 73] |  |  |  | > 60 | 250 ± 40 | 170 ± 20 | 4000 | 30 ± 4 | 98 ± 10 |
| C/C(=C\c1nc2ccccc2s1)[C@@H]1C[C@@H]2N(CCO)[C@]2(C)CCC[C@H](C)[C@H](O)[C@@H](C)C(=O)C(C)(C)[C@@H](O)CC(=O)O1 (some centres unmarked) [Compound 74] |  |  |  | 7.9 ± 1 | 11 ± 1 | 23 ± 7 | 630 ± 80 | 3.5 ± 0.3 | 12 ± 3 |
| C/C(=C\c1csc(CN)n1)[C@@H]1C[C@@H]2N(CCO)[C@]2(C)CCC[C@H](C)[C@H](O)[C@@H](C)C(=O)C(C)(C)[C@@H](O)CC(=O)O1 (some centres unmarked) [Compound 75] |  |  |  | > 60 | 65 ± 7 | 93 ± 20 | 2800 | 20 ± 3 | 130 ± 20 |
| C/C(=C\c1csc(CCN)n1)[C@@H]1C[C@@H]2N(CCO)[C@]2(C)CCC[C@H](C)[C@H](O)[C@@H](C)C(=O)C(C)(C)[C@@H](O)CC(=O)O1 (some centres unmarked) [Compound 76] |  |  |  | 9.1 ± 1 | 15 ± 3 | 8.6 ± 1 | 45 ± 6 | 3.8 ± 0.7 | 50 ± 10 |
| CSc1nc(/C=C(\C)[C@@H]2C[C@@H]3N[C@]3(C)CCC[C@H](C)[C@H](O)[C@@H](C)C(=O)C(C)(C)[C@@H](O)CC(=O)O2)cs1 [Compound 77] |  |  |  | 5 ± 1 | 4 ± 1 | 16 ± 4 | 8.8 ± 1 | 4.5 ± 0.5 | 11 ± 3 |
| CSc1nc(/C=C(\C)[C@@H]2C[C@@H]3N(CCO)[C@]3(C)CCC[C@H](C)[C@H](O)[C@@H](C)C(=O)C(C)(C)[C@@H](O)CC(=O)O2)cs1 (some centres unmarked) [Compound 78] |  |  |  | 14 ± 3 | 28 ± 6 | 75 ± 10 | 55 ± 7 | 42 ± 5 | 60 ± 10 |
| CSc1nc(/C=C(\C)[C@@H]2C[C@@H]3N(CCN)[C@]3(C)CCC[C@H](C)[C@H](O)[C@@H](C)C(=O)C(C)(C)[C@@H](O)CC(=O)O2)cs1 (some centres unmarked) [Compound 79] |  |  |  | 6.1 ± 0.1 | 14 ± 2 | 63 ± 3 | 70 ± 10 | 15 ± 4 | 23 ± 6 |
